From patent publication US9618513B2, “Compositions and methods for detecting and treating colorectal cancer” (The Regents of the University of Michigan, priority 2014, dated 2017)

Experiments:
Assay type in all cases: cell-based, human
[1] = system: colon cancer cells; test: Colon cancer cell proliferation (Ki67 FACS, H3 thymidine incorporation, cell counting); settings: H3 thymidine incorporation
Source text: A. GSEA analysis identifies proliferation pathways have positive correlation with IL-22. B. Cell proliferation maker Ki67 was detected by FACS. C. H^3 Thymidine Incorporation was used to detect the function of IL-22 in cell proliferation. D. Cell number was counted after stimulated with IL-22. E. Cells isolated from colon cancer tissue (Tumor cells and Leukocytes) were stimulated with a-CD3 and […] for 3 days, and supernatant mixed with or without anti-IL-22 antibody was co-cultured with DLD1 cells for 24 h to test cell proliferation. F. Cell cyclin-dependent kinase and kinase inhibitors were analyzed by Real-Time PCR.
A, C. Cell proliferation was analyzed using H^3 Thymidine Incorporation. B. The level of total H3K79m2 and H3K27me3 was measured by Western Blot. D. PcG proteins of EZH2, EED, SUZ12 was increased with IL-22(20 ng/ml) treatment. E. EZH2, SUZ12 and EED was detected by Western Blot after IL-22 treated for 24 h or 48 h. F. EZH2 inhibitor DZNep reduced cell proliferation. G.H. The efficiency of EZH2 and SUZ12 knock down was tested by Western Blot. I.J. Cell proliferation was analyzed using H^3 Thymidine Incorporation after knock down of EZH2 and SUZ12. K.L. Relative expression of cyclin-dependent kinase inhibitors (p16 and p18) in shEZH2, shSUZ12 and Dznep treated cells after IL-22 treatment. M. The level of H3K27me3 in the promoter of p16 and p18 was analyzed by ChIP assay.
A. The protein level of phosphorylated STAT3, STAT1 and STATS were activated by IL-22. B. The effect of STAT3 knock down. C. The effect of IL-22 on cell proliferation was analyzed using H^3 Thymidine Incorporation in Stat3 knock down cells. D. Knock down of STAT3 reduced the expression of EZH2 and SUZ12. E. Based on the ENCODE STAT3-ChIP-Seq data base, STAT3 occupancy on the promoter areas of SUZ12 and EED is shown. F. SUZ12/EED DNA was detected by ChIP assay using an antibody against STAT3, c-fos was used as a positive control.
(§1) Three primary colon cancer cell lines (SB, WR, JR) were established from fresh colon tissues. These primary colon cancer cells and DLD1 (ATCC) were studied. Colon cancer cells were treated with recombinant IL-22 (R&D) for different time points. The EZH2 inhibitor DZNep was added in conventional or sphere culture (see, e.g., Kryczek, I., et al., (2012) International journal of cancer 130, 29-39). Tumor cell sphere formation and gene expression were examined (see, e.g., Kryczek, I., et al., (2012) International journal of cancer 130, 29-39).

[2] = system: primary colon cancer cell line SBCA; test: Proliferation of primary colon cancer cell line SBCA
Description: FIG. 21A-E A. Dot1L/H3K79me2 inhibitor EZP004777 (10 uM) had no effect on SUZ12 expression but reduce Sox2. B. EZP004777 had no effect on primary colon cancer cell line SBCA. C. EZH2 inhibitor DZNep reduced SBCA cell proliferation. D. SUZ12 knockdown reduced H3K27m3 level. E. Effect of I1-22 on tumor sphere assay was analyzed in shEZH2, shSUZ12 and Dznep treated cells.
as §1

[3] = system: CD4+ T cells; test: Transwell migration assay; settings: CCL-20 5 ng/ml in lower chamber, 4 h
Description: (A, B) IL-22 is expressed by immune cells in colon cancer tissues. Different cell populations were sorted from colon cancer tissues and IL-22 expression was measured by real time PCR. (5-10 donors, P<0.05). (C) IL-22 is spontaneously released by different immune cell populations in colon cancer tissues. Different CD45^+ immune subsets (10^6/ml) were sorted from colon cancer and blood, and cultured for 12 hours. IL-22 was detected via ELISA. (n=5, *P<0.05). (D, E) IL-22 is expressed by activated CD4^+ T cells in colon cancer tissues. CD45^+ subsets (10^6/ml) were sorted from colon cancer and blood, and were activated with anti-CD3 and anti-CD28 for 2 days. IL-22 was detected with ELISA (D) or intracellular staining (E). (n=5, *P<0.05). (F, G) CCR6^+CD4^+ T cells express IL-22. CD4^+ T cells were sorted based on CCR6 expression and activated with anti-CD3 and anti-CD28 and antigen presenting cells. IL-22 mRNA was detected by real time PCR (F) and protein by ELISA (G). (5 different donors, P<0.05). […] IL-22 expression was quantified with real-time PCR in the migrated and non-migrated cells. Results are expressed as the mean relative expression (H). The phenotype of migrated cells, non-migrated cells and control (before migration) was analyzed by FACS (I). […] The mRNA of stem cell core genes was detected by real-time PCR after 6 hours (K) and ALDH activity was detected by FACS after 48 hours (L). […]

| Molecule | colon cancer cell proliferation induced by IL-22 [1] | SBCA cell proliferation [2] | T cell migration [3] |
| --- | --- | --- | --- |
| Nc1nccc2c1ncn2C1C=C(CO)C(O)C1O (stereo not drawn) [DZNep, reference compound] | significantly blocked | reduced |  |
| CCL20: the ligand for CCR6; CCL-20 (5 ng/ml, R&D) |  |  | efficiently migrated |
